Test: xn = mol fraction of the nth substance listed
Settings: 318.15 K, Liquid, Vibrating tube method

CCC(=O)c1ccccc1 [ethyl phenyl ketone] + Cc1ccccc1
mass density [kg/m3]
Settings | x2 = 0 | x2 = 0.1048 | x2 = 0.2025 | x2 = 0.3006 | x2 = 0.3991 | x2 = 0.4998 | x2 = 0.6004 | x2 = 0.7036 | x2 = 0.8028 | x2 = 0.902
20370 kPa | – | – | – | – | – | 939.75 | 925.33 | 909.9 | 894.1 | 877.4
22390 kPa | 1001.6 | 989.9 | 978.8 | 967 | 954.5 | 941.04 | 926.66 | 911.2 | 895.5 | 878.9
24420 kPa | 1002.7 | 991 | 980 | 968.1 | 955.7 | 942.28 | 927.93 | 912.5 | 896.8 | 880.3
26450 kPa | 1003.8 | 992.1 | 981.1 | 969.3 | 956.8 | 943.5 | 929.18 | 913.8 | 898.2 | 881.6
28470 kPa | 1004.9 | 993.3 | 982.2 | 970.5 | 958 | 944.7 | 930.43 | 915.1 | 899.5 | 883
29490 kPa | 1005.5 | 993.8 | 982.8 | 971.1 | 958.6 | 945.34 | 931.09 | 915.7 | 900.1 | 883.7
30500 kPa | 1006 | 994.4 | 983.4 | 971.6 | 959.2 | 945.93 | 931.69 | 916.4 | 900.8 | 884.3
32530 kPa | 1007.1 | 995.5 | 984.5 | 972.8 | 960.4 | 947.12 | 932.92 | 917.6 | 902.1 | 885.7
34550 kPa | 1008.2 | 996.6 | 985.6 | 973.9 | 961.5 | 948.29 | 934.11 | 918.8 | 903.3 | 887
36580 kPa | 1009.2 | 997.7 | 986.7 | 975 | 962.7 | 949.45 | 935.3 | 920 | 904.6 | 888.3
38600 kPa | 1010.3 | 998.7 | 987.8 | 976.1 | 963.7 | 950.58 | 936.48 | 921.2 | 905.8 | 889.5
39620 kPa | 1010.8 | 999.3 | 988.3 | 976.6 | 964.3 | 951.19 | 937.08 | 921.9 | 906.4 | 890.2

From the NIST ThermoML archive (doi:10.1016/j.jct.2004.10.011)
